“Also recorded” adds a separate entry of the source.
Experiments:
A549 cells [1] = assay: Mitochondrial membrane potential measurement (JC-10); format: cell-based, human; conditions: 10 μM, 24 h
Experimental: To access the mechanism of cell death, Mitochondrial Membrane Potential (MMP) was performed using JC-10 cationic dye. […] Cells were collected, and 20 μM JC-10 dye prepared in HBSS solution (0.14 M NaCl, 0.005 M KCl, 0.001 M CaCl2, 0.005 M MgSO4-7H2O, 0.0004 M MgSO4-6H2O, 0.0003 M Na2HPO4-2H2O, 0.0004 M KH2PO4, 0.006 M D-glucose, 0.004 M NaHCO3, 0.002 M HEPES, and 0.02% Pluronic® F-127) was added to the cell for 30 min and mixed. The samples were protected from light and measured by using the MACS Quant Analyzer 10 Flow cytometer.

A549 cells [2] = assay: Western blotting of apoptosis-related proteins; format: cell-based, human; conditions: 5 and 10 μM, 24 h
Experimental: Western blotting measured changes in apoptosis-related proteins (PARP, BAX, BCL-2, Caspase-3). A549 cells (1 × 10^6 cells per well in 6-well plates) were incubated for 24 h. Cells were treated with concentrations of the compounds and incubated for 24 h. Then, cells were dissolved on ice for two hours with a lysis buffer containing a mixture of protease and phosphatase inhibitors. The lysate was centrifuged at 12,000× g for 15 min at 4 °C, and the supernatant was collected. Protein concentrations were measured using a bicinchoninic acid protein assay kit. Total protein was separated by 8–10% sodium dodecyl sulfate–polyacrylamide gel electrophoresis (SDS-PAGE) and transferred onto polyvinylidene fluoride (PVDF) membranes. After being blocked with 5% skim milk, membranes were probed overnight at 4 °C with primary antibodies against SK1, SK2, PARP, BAX, Bcl-2, Caspase-3, and β-actin. Then, the membranes were incubated with subsequent secondary antibodies at room temperature. Then, the protein expressions were measured by Amersham Imager 680 (GE Healthcare, Leiden, WZ, The Netherlands).

[3] = In vitro metabolic stability, human liver microsomes; conditions: pooled liver microsomes 0.5 mg/mL, NADPH, 37 °C, 0 and 30 min
A549 cells [4] = assay: Colony formation assay; format: cell-based, human; conditions: 5 and 10 μM
Experimental: A549 cells (1 × 10^3 cells/well) were seeded into six-well plates and then each compound was treated at 5 and 10 μM for 12 h. The medium was changed every two days, and the cells were cultured in a fresh medium for 10 days. The obtained colonies were fixed with 25% glutaraldehyde for 20 min and then stained with 0.1% crystal violet for 15 min.

[5] = Serum analysis of tumor xenograft mice; format: in vivo; conditions: serum biochemical assays; 5 mg/kg i.p., 29 days
Experimental: Five-week-old BALB/c-nu/nu male mice were purchased from Orient Bio Inc. (Seongnam, Gyeonggi-do, Korea). The mice were housed in a climate-controlled room (22 ± 2 °C, 50 ± 10% relative humidity) and specific pathogen-free conditions with a 12 h light/dark cycle and adapted for a week with free access to food and water. Cages, bedding, and drinking water were autoclaved and changed regularly. The cancer cell suspension {3 × 10^7 cells/ 150 μL phosphate-buffered saline (PBS)} was inoculated subcutaneously into the right flank. Measurable tumors were found 7–8 days after cell inoculation, and tumors grew in 90% of the injection site two weeks later. The mice were randomly divided into test groups (12 mice per group) when the tumor volume reached 100 mm^2 about two weeks after the inoculation (experimental day 0). The control group (vehicle-treated group) and Compound 4 (5 mg/kg) were administered i.p. 3 times a week. The formulation of Compound 4 was prepared in a mixture of 10% DMSO + 90% PBS. The tumor growth rate and body weights in each of the two groups were measured every three days using a Vernier caliper and a digital weighing balance, respectively. Tumor volume was calculated as l × b^2 × 0.52, where l is the length and b is the width. […]
Blood samples were centrifuged at 3000× g for 20 min, and levels of ALT, AST, ALP, sphingosine, ceramide, and S1P were measured using a kit.

SK1 = SK1 (Homo sapiens, UniProt Q9NYA1); assay: SK1 activity assay (Adapta screening system)
[6] = tested on: A549 cell-induced tumor xenograft; assay: A549 tumor xenograft in BALB/c nude mice; format: in vivo; conditions: vs control group
Experimental: Five-week-old BALB/c-nu/nu male mice were purchased from Orient Bio Inc. (Seongnam, Gyeonggi-do, Korea). The mice were housed in a climate-controlled room (22 ± 2 °C, 50 ± 10% relative humidity) and specific pathogen-free conditions with a 12 h light/dark cycle and adapted for a week with free access to food and water. Cages, bedding, and drinking water were autoclaved and changed regularly. The cancer cell suspension {3 × 10^7 cells/ 150 μL phosphate-buffered saline (PBS)} was inoculated subcutaneously into the right flank. Measurable tumors were found 7–8 days after cell inoculation, and tumors grew in 90% of the injection site two weeks later. The mice were randomly divided into test groups (12 mice per group) when the tumor volume reached 100 mm^2 about two weeks after the inoculation (experimental day 0). The control group (vehicle-treated group) and Compound 4 (5 mg/kg) were administered i.p. 3 times a week. The formulation of Compound 4 was prepared in a mixture of 10% DMSO + 90% PBS. The tumor growth rate and body weights in each of the two groups were measured every three days using a Vernier caliper and a digital weighing balance, respectively. Tumor volume was calculated as l × b^2 × 0.52, where l is the length and b is the width. Four weeks after treatment, blood samples were drawn from the orbital sinus under anesthesia, the mice were sacrificed by cervical dislocation, and the tumors were dissected for further examination.
The paraffin-embedded tumor specimens were deparaffinized with xylene and a series of different alcohol concentrations, rehydrated, and antigen retrieval was carried out with sodium citrate buffer (0.05 M with PH 6). After blocking with 5% BSA, the slides were incubated overnight at 4 °C with KI67 (Cell Signaling Technology, Danvers, MA, USA), Caspase-3 (Abcam, Cambridge, UK), and S1P antibodies (Echelon Biosciences inc, Salt Lake City, UT). The slides were washed with 1× TBST (TBST with PH 8.4) plus 0.5 percent Triton X-100 (Sigma-Aldrich, St. Louis, MO, USA), then secondary antibodies were added in 1:500 ratios (Invitrogen-Alexa Fluor plus 555, 488, and Alexa FluorTM546), and nuclear staining was performed with Hoechst (Invitrogen, Carlsbad, CA, USA), mounted with a flurosave reagent (EMD Millipore Crop, Billerica, MA, USA). Stain sections were observed and photographed using a confocal microscope (Carl-Zeiss-LSM710NLO and LSM780NLO), and results were analyzed using the Carl-Zeiss ZEN2 software and quantification was done by using the ImageJ software, respectively.

A549 cells [7] = assay: Annexin V-FITC apoptosis analysis; format: cell-based, human; conditions: 24 h
Experimental: A549 cells (1 × 10^5 cells) were seeded in into a 12-well plate. […] After harvesting the cells, the binding buffer was added and then incubated with annexin-V-FITC and PI at room temperature for 15 min. The stained cells were analyzed with MACS Quant Analyzer 10 Flow Cytometer (Miltenyi Biotec, Bergisch Gladbach, Germany) within 1 h.

[8] = In vitro metabolic stability, rat liver microsomes; format: in vitro ADME; conditions: pooled liver microsomes, NADPH, 37 °C, 0 and 30 min
[9] = In vitro metabolic stability, mouse liver microsomes; format: in vitro ADME; conditions: pooled liver microsomes, NADPH, 37 °C, 0 and 30 min
A549 cells [10] = assay: Levels of sphingosine, ceramide and S1P (ELISA); format: cell-based, human; conditions: 5 and 10 μM
Experimental: After seeding 1 × 10^6 cells/well into a 6-well plate and incubating for 24 h, the synthetic compounds were treated by concentration. Then, cells were collected and freezing and thawing were repeated three to five times, and centrifuged supernatant was used for testing. The levels of sphingosine, ceramide, and S1P were measured according to the proposed manual using each ELISA kit (Mybiosource, Inc., San Diego, CA, USA).

[11] = immunohistochemistry, 5 mg/kg i.p.

SK1, sequence (Q9NYA1 whole entry): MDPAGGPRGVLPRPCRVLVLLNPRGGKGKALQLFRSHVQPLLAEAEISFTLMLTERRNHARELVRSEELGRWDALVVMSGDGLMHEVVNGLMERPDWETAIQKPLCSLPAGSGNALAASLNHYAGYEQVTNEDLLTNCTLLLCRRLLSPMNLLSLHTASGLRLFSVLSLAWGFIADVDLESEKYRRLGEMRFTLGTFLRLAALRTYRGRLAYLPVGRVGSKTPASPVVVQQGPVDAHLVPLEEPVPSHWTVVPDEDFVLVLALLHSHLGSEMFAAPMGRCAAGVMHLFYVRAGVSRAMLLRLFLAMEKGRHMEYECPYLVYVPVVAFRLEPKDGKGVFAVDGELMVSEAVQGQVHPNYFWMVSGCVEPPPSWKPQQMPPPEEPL

In the case of `Cc1cc(CN(Cc2cc(C)cc(CS(=O)(=O)c3ccccc3)c2)c2ccc(CCN3CCC(CO)CC3)cc2)cc(CS(=O)(=O)c2ccccc2)c1` [Compound 4, (1-(4-(Bis(3-methyl-5-((phenylsulfonyl)methyl)benzyl)amino)phenethyl)piperidin-4-yl)methanol], the “change in mitochondrial membrane potential (MMP), JC-10” value (A549 cells [1]) is reported as “significantly increased compared to that after treatment with PF-543”, the “levels of PARP, Caspase-3 and cleaved PARP” value (A549 cells [2]) is reported as “levels of PARP and Caspase-3 were decreased and cleavage of PARP was increased” and the “MS HLM” value [3] is reported as 30.2. For the same molecule, the colony formation (A549 cells [4]) was “reduce colony formation in a concentration-dependent manner”, the hepatotoxicity [5] was “does not appear to cause hepatotoxicity” and the “selectivity for SK1” value (SK1; SK1 vs SK2, compared to PF-543) was “lower selectivity for SK1 compared to PF-543”. The inhibition at 10 µM (SK1; read-out: SK1 inhibitory efficacy) was 31%, the tumor volume ([6]; 5 mg/kg i.p. 3 times a week, 29 days) was “statistically significant inhibitory effect on the tumor volume” and the tumor weight ([6]; 5 mg/kg i.p. 3 times a week, day 29) was “significant decrease in the tumor weight”. For the same molecule, the weight of animals ([6]; 5 mg/kg i.p. 3 times a week) was “no difference in the weight”, the “KI67 level in tumor sections (proliferation marker)” value [6, 11] was “decrease in the level of KI67” and the “S1P levels in the tumor section” value [6, 11] was “decreased”. For the same molecule, the “caspase-3 level in tumor sections (apoptosis marker)” value [6, 11] was “increased”, the “apoptotic effect (annexin-V)” value (A549 cells [7]; 5 μM) was “significant effect” and the “apoptotic effect (annexin-V)” value (A549 cells [7]; 10 μM) was “significantly higher apoptotic effect compared to PF-543”. The “MS RLM” value [8] was 22.9, the “MS MLM” value [9] was 38.5 and the S1P levels (A549 cells [10]) was “reduced; also recorded: inhibited S1P at a level similar to that of PF-543”. The ceramide levels (A549 cells [10]) was “increased” and the sphingosine levels (A549 cells [10]) was “slightly lower sphingosine expression than PF-543”.

— paper PMC9611471 (Pharmaceutics, 2022)
